# Measurements published in article PMC11078216, “Discovery of potent and selective activity-based probes (ABPs) for the deubiquitinating enzyme USP30” (RSC Chemical Biology, 2024).
# Experiments:
# Experiment in all cases: ABPP chemical proteomics (LC-MS/MS) in HEK293T cells
# Type in all cases: cell-based
# RPL10 = molecular target: T1, RPL10 (Homo sapiens, UniProt P27635); details: compound 1 out-competition with IMP-2587 labelling, HEK293T (Table S3, Fig.5b)
# T1 construct: endogenous in cells; host or cells: HEK293T
# Outline: (§1)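 After inhibitor treatment, HEK293T cells were exposed to ABP 2 or ABP 4 at indicated concentrations (1 h, 37 °C). Tagged proteins were captured via click chemistry and NeutrAvidin enrichment, and relative abundance was measured by LC-MS/MS.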
# DCD = molecular target: T2, DCD (Homo sapiens, UniProt P81605); details: compound 1 out-competition with IMP-2587 labelling, HEK293T (Table S3, Fig.5b)
# T2 construct: endogenous in cells; host or cells: HEK293T
# Outline: as §1
# RPL34 = molecular target: T3, RPL34 (Homo sapiens, UniProt P49207); details: compound 1 out-competition with IMP-2587 labelling, HEK293T (Table S3, Fig.5b)
# T3 construct: endogenous in cells; host or cells: HEK293T
# Outline: as §1
# NIT2 = molecular target: T4, NIT2 (Homo sapiens, UniProt Q9NQR4); details: IMP-2587 labelling vs DMSO, 30 nM, 10 min, HEK293T (Table S2, Fig.5a)
# T4 construct: endogenous in cells; host or cells: HEK293T
# Outline: as §1
# HMGCS1 = molecular target: T5, HMGCS1 (Homo sapiens, UniProt Q01581); details: IMP-2587 labelling vs DMSO, 30 nM, 10 min, HEK293T (Table S2, Fig.5a)
# T5 construct: endogenous in cells; host or cells: HEK293T
# Outline: as §1
# HSDL1 = molecular target: T6, HSDL1 (Homo sapiens, UniProt Q3SXM5); details: IMP-2586 labelling vs DMSO, 30 nM, 10 min, HEK293T (Table S4, Fig.5c)
# T6 construct: endogenous in cells; host or cells: HEK293T
# Outline: as §1
# MDC1 = molecular target: T7, MDC1 (Homo sapiens, UniProt Q14676); details: IMP-2586 labelling vs DMSO, 30 nM, 10 min, HEK293T (Table S4, Fig.5c)
# T7 construct: endogenous in cells; host or cells: HEK293T
# Outline: as §1
# TMEM109 = molecular target: T8, TMEM109 (Homo sapiens, UniProt Q9BVC6); details: IMP-2586 labelling vs DMSO, 30 nM, 10 min, HEK293T (Table S4, Fig.5c)
# T8 construct: endogenous in cells; host or cells: HEK293T
# Outline: as §1
# AURKAIP1 = molecular target: T9, AURKAIP1 (Homo sapiens, UniProt Q9NWT8); details: IMP-2586 labelling vs DMSO, 30 nM, 10 min, HEK293T (Table S4, Fig.5c)
# T9 construct: endogenous in cells; host or cells: HEK293T
# Outline: as §1
# ALYREF = molecular target: T10, ALYREF (Homo sapiens, UniProt Q86V81); details: IMP-2586 labelling vs DMSO, 30 nM, 10 min, HEK293T (Table S4, Fig.5c)
# T10 construct: endogenous in cells; host or cells: HEK293T
# Outline: as §1
# CNP = molecular target: T11, CNP (Homo sapiens, UniProt P09543); details: IMP-2586 labelling vs DMSO, 30 nM, 10 min, HEK293T (Table S4, Fig.5c)
# T11 construct: endogenous in cells; host or cells: HEK293T
# Outline: as §1
# MALT1 = molecular target: T12, MALT1 (Homo sapiens, UniProt Q9UDY8); details: IMP-2586 labelling vs DMSO, 30 nM, 10 min, HEK293T (Table S4, Fig.5c)
# T12 construct: endogenous in cells; host or cells: HEK293T
# Outline: as §1
# LUC7L3 = molecular target: T13, LUC7L3 (Homo sapiens, UniProt O95232); details: compound 3 out-competition with IMP-2586 labelling, HEK293T (Table S5, Fig.5d)
# T13 construct: endogenous in cells; host or cells: HEK293T
# Outline: as §1
# CLPTM1 = molecular target: T14, CLPTM1 (Homo sapiens, UniProt O96005); details: compound 3 out-competition with IMP-2586 labelling, HEK293T (Table S5, Fig.5d)
# T14 construct: endogenous in cells; host or cells: HEK293T
# Outline: as §1
# NUB1 = molecular target: T15, NUB1 (Homo sapiens, UniProt Q9Y5A7); details: compound 3 out-competition with IMP-2586 labelling, HEK293T (Table S5, Fig.5d)
# T15 construct: endogenous in cells; host or cells: HEK293T
# Outline: as §1
# T4 sequence (Q9NQR4 whole entry): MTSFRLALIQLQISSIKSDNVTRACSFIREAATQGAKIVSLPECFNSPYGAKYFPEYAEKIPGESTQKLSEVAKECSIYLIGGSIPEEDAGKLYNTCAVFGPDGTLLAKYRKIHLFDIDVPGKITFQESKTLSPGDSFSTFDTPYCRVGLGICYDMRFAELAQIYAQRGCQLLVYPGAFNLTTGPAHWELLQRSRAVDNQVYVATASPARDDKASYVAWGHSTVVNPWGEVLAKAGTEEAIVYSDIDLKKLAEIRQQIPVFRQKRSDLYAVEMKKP
# T13 sequence (O95232 whole entry): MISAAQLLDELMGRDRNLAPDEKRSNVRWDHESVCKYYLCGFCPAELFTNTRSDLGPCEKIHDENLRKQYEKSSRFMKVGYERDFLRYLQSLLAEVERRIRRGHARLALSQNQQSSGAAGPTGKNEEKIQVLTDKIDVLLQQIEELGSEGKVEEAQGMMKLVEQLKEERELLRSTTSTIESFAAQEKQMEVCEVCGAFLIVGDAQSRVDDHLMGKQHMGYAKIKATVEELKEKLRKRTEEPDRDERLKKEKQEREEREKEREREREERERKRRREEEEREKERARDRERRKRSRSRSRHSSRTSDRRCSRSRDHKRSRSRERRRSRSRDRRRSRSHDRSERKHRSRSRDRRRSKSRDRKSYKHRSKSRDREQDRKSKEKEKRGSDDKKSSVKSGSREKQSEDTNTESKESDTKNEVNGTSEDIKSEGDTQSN
# T6 sequence (Q3SXM5 whole entry): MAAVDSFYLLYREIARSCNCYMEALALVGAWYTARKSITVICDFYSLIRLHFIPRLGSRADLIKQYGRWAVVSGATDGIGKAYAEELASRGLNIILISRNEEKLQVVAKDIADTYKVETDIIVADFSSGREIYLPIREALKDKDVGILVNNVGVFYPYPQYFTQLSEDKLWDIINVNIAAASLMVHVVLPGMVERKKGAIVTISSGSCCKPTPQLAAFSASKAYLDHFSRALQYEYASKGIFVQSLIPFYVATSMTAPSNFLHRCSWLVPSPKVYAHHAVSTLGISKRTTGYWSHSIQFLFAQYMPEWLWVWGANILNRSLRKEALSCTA
# T12 sequence (Q9UDY8 whole entry): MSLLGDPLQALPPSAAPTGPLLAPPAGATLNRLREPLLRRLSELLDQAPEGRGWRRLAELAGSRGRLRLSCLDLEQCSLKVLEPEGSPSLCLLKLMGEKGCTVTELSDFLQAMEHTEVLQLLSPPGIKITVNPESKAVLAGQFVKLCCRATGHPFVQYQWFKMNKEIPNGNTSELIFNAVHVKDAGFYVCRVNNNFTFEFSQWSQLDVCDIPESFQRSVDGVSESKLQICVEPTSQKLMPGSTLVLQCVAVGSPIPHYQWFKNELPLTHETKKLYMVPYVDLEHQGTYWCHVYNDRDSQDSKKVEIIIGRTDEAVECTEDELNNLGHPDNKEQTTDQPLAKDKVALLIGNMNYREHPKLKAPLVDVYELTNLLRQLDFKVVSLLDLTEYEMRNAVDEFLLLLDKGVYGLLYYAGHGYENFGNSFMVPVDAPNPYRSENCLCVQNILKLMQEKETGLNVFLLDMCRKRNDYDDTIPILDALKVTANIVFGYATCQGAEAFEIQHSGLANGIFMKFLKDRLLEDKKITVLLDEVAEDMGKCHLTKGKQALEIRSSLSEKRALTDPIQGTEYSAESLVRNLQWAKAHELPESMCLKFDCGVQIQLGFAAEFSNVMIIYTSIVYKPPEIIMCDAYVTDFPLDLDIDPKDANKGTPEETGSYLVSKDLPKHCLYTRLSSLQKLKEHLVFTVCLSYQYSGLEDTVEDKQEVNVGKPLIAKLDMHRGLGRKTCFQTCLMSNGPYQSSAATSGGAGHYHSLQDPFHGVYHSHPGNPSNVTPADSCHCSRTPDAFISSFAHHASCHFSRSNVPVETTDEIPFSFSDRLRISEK
# T2 sequence (P81605 20-110): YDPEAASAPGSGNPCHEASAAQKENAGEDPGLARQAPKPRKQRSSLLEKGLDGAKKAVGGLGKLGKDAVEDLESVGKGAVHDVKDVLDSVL
# T11 sequence (P09543 whole entry): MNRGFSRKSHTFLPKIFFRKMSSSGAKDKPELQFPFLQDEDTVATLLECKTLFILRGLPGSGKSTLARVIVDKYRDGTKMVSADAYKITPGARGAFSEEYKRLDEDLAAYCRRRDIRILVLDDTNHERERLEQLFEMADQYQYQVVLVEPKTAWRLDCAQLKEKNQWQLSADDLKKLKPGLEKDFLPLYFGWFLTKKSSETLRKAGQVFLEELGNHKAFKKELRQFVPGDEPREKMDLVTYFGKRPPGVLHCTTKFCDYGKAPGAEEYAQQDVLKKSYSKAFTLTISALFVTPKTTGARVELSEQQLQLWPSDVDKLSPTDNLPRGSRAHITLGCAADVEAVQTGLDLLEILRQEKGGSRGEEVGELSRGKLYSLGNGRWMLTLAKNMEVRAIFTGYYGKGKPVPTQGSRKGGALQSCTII
# T5 sequence (Q01581 whole entry): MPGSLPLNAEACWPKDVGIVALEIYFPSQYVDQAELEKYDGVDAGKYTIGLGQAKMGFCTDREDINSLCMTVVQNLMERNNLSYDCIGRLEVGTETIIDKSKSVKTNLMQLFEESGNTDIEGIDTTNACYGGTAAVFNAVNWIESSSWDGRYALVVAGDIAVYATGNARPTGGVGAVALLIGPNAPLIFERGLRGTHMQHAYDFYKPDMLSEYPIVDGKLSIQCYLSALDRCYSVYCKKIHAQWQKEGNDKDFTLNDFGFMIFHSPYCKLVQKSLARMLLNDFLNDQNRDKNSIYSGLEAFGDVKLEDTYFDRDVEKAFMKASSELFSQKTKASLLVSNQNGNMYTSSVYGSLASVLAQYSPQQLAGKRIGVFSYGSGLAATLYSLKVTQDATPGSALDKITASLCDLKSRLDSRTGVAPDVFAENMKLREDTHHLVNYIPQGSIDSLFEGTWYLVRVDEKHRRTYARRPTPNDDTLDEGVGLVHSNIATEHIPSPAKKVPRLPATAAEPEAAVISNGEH
# T15 sequence (Q9Y5A7 whole entry): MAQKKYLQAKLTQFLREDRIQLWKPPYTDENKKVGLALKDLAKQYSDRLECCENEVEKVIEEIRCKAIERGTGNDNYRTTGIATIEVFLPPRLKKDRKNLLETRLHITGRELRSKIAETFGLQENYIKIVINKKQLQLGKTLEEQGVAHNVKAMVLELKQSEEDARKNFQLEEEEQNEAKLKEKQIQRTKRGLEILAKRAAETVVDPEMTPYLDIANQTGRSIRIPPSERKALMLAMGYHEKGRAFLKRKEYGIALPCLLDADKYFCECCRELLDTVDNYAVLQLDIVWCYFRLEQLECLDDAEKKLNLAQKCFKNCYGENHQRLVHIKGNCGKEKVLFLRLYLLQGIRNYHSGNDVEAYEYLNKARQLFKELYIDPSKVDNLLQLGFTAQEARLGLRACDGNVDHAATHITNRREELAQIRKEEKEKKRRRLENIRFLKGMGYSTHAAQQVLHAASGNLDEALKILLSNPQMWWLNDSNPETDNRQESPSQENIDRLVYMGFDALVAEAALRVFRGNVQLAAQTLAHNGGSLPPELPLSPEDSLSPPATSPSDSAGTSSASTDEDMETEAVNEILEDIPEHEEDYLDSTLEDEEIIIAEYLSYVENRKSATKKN
# T8 sequence (Q9BVC6 34-243): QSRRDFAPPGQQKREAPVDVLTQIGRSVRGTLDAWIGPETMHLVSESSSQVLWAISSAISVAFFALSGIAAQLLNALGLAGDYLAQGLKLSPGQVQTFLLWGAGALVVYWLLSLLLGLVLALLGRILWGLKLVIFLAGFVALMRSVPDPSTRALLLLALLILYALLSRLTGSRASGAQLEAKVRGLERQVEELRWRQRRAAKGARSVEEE
# T14 sequence (O96005 whole entry): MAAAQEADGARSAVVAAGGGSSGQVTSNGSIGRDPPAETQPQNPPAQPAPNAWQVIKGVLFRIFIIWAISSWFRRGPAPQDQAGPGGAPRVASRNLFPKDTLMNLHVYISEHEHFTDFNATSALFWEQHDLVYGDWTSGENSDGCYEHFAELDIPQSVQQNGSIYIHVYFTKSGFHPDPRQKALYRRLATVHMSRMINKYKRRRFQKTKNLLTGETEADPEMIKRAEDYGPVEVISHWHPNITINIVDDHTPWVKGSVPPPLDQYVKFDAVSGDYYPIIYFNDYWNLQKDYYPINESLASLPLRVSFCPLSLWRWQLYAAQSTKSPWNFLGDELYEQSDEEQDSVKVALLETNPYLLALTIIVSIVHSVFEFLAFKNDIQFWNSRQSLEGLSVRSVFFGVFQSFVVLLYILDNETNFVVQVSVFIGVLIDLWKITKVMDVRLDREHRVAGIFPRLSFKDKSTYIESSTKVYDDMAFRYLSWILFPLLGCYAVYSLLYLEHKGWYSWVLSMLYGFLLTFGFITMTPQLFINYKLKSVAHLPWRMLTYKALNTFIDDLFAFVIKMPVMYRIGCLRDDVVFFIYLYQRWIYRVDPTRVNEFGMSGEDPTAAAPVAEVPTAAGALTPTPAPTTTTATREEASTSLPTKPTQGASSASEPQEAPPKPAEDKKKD
smiles,measurement,setting,value
"N#CN1CC[C@H](CC(=O)Nc2cc(-c3cccc(Cl)c3)no2)C1 [compound 1, reference compound]",Difference (log2 fold change of enrichment),RPL10,-0.52
same,Difference (log2 fold change of enrichment),DCD,-0.34
same,Difference (log2 fold change of enrichment),RPL34,-0.67
C#Cc1cccc(-c2cc(NC(=O)CC3CCN(C#N)C3)on2)c1 (stereo not drawn) [IMP-2587],Difference (log2 fold change of enrichment),NIT2,0.61
same,Difference (log2 fold change of enrichment),HMGCS1,0.75
N#CN1CC[C@@H](NC(=O)c2cc(-c3ccccc3Oc3ccc(N=[N+]=[N-])cc3)n[nH]2)C1 [IMP-2586],Difference (log2 fold change of enrichment),HSDL1,1.22
same,Difference (log2 fold change of enrichment),MDC1,0.38
same,Difference (log2 fold change of enrichment),TMEM109,-1.56
same,Difference (log2 fold change of enrichment),AURKAIP1,0.81
same,Difference (log2 fold change of enrichment),ALYREF,-0.42
same,Difference (log2 fold change of enrichment),CNP,-0.68
same,Difference (log2 fold change of enrichment),MALT1,0.75
"N#CN1CC[C@@H](NC(=O)c2cc(-c3ccccc3Oc3ccccc3)n[nH]2)C1 [compound 3, reference compound]",Difference (log2 fold change of enrichment),LUC7L3,-0.51
same,Difference (log2 fold change of enrichment),CLPTM1,-1.18
same,Difference (log2 fold change of enrichment),NUB1,-0.38
